Laboratory results reported in ChEMBL document CHEMBL1697731, “Cheminformatics analysis of assertions mined from literature that describe drug-induced liver injury in different species” (Chem Res Toxicol, 2010).

Legend:
[1] = system: Hepatotoxicity; test: Literature-mined compound from Fourches et al multi-species drug-induced liver injury (DILI) dataset, effect in non-rodents
[2] = system: Hepatotoxicity; test: Literature-mined compound from Fourches et al multi-species drug-induced liver injury (DILI) dataset, effect in humans; conditions: human
[3] = system: Hepatotoxicity; test: Literature-mined compound from Fourches et al multi-species drug-induced liver injury (DILI) dataset, effect in rodents; conditions: rodentia

Question: Which Hepatotoxicity [1] does the source give for `CC(C)c1nc(CN(C)C(=O)N[C@H](C(=O)N[C@@H](Cc2ccccc2)C[C@H](O)[C@H](Cc2ccccc2)NC(=O)OCc2cncs2)C(C)C)cs1` [RITONAVIR] here?
Answer: no drug-induced liver injury reported

Question: What about the Hepatotoxicity [2] of the same compound?
Answer: drug-induced liver injury reported

Question: What about the Hepatotoxicity [3] of the same compound?
Answer: drug-induced liver injury reported

Question: Which results are given for `CS(=O)(=O)c1ccc(C2=C(c3ccccc3)C(=O)OC2)cc1` [ROFECOXIB]?
Answer: Hepatotoxicity [1]: no drug-induced liver injury reported; Hepatotoxicity [2]: drug-induced liver injury reported; Hepatotoxicity [3]: drug-induced liver injury reported

Question: Which Hepatotoxicity [1] does the source give for `CN(C)[C@@H]1C(O)=C(C(=O)NCN2CCCC2)C(=O)[C@@]2(O)C(O)=C3C(=O)c4c(O)cccc4[C@@](C)(O)[C@H]3C[C@@H]12` [ROLITETRACYCLINE] here?
Answer: no drug-induced liver injury reported

Question: What about the Hepatotoxicity [2] of the same compound?
Answer: no drug-induced liver injury reported

Question: And the Hepatotoxicity [3]?
Answer: drug-induced liver injury reported

Question: `O=C([O-])c1c(Cl)c(Cl)c(Cl)c(Cl)c1-c1c2cc(I)c(=O)c(I)c-2oc2c(I)c([O-])c(I)cc12.[Na+].[Na+]` [ROSE BENGAL SODIUM] was tested. Which Hepatotoxicity [1] did it give?
Answer: no drug-induced liver injury reported

Question: And the Hepatotoxicity [2]?
Answer: no drug-induced liver injury reported

Question: And the Hepatotoxicity [3]?
Answer: drug-induced liver injury reported

Question: With `CN(CCOc1ccc(CC2SC(=O)NC2=O)cc1)c1ccccn1` (stereo not drawn) [ROSIGLITAZONE] as the compound, how does the Hepatotoxicity [1] read?
Answer: no drug-induced liver injury reported

Question: What about the Hepatotoxicity [2] of the same compound?
Answer: drug-induced liver injury reported

Question: And the Hepatotoxicity [3]?
Answer: drug-induced liver injury reported

Question: Which results are given for `CC(C)c1nc(N(C)S(C)(=O)=O)nc(-c2ccc(F)cc2)c1/C=C/[C@@H](O)C[C@@H](O)CC(=O)O` [ROSUVASTATIN]?
Answer: Hepatotoxicity [1]: no drug-induced liver injury reported; Hepatotoxicity [2]: no drug-induced liver injury reported; Hepatotoxicity [3]: drug-induced liver injury reported

Question: Which Hepatotoxicity [1] does the source give for `CC[C@H]1OC(=O)[C@H](C)[C@@H](O[C@H]2C[C@@](C)(OC)[C@@H](O)[C@H](C)O2)[C@H](C)[C@@H](O[C@@H]2O[C@H](C)C[C@H](N(C)C)[C@H]2O)[C@](C)(O)C[C@@H](C)/C(=N\OCOCCOC)[C@H](C)[C@@H](O)[C@]1(C)O` [ROXITHROMYCIN] here?
Answer: no drug-induced liver injury reported

Question: And the Hepatotoxicity [2]?
Answer: drug-induced liver injury reported

Question: And the Hepatotoxicity [3]?
Answer: drug-induced liver injury reported

Question: Which results are given for `CC[C@@]1(O)C(=O)OCc2c1cc1n(c2=O)Cc2cc3c([N+](=O)[O-])cccc3nc2-1` [RUBITECAN]?
Answer: Hepatotoxicity [1]: no drug-induced liver injury reported; Hepatotoxicity [2]: drug-induced liver injury reported; Hepatotoxicity [3]: no drug-induced liver injury reported

Question: With `NC(=O)c1ccccc1O` [SALICYLAMIDE] as the compound, how does the Hepatotoxicity [1] read?
Answer: no drug-induced liver injury reported

Question: And the Hepatotoxicity [2]?
Answer: drug-induced liver injury reported

Question: And the Hepatotoxicity [3]?
Answer: drug-induced liver injury reported

Question: What does the source list for `O=C(O)c1ccccc1O` [SALICYLIC ACID]?
Answer: Hepatotoxicity ([1]; Liver): no drug-induced liver injury reported; Hepatotoxicity ([2]; Liver): no drug-induced liver injury reported; Hepatotoxicity ([3]; Liver): drug-induced liver injury reported

Question: For `C#CCN(C)[C@H](C)Cc1ccccc1` [SELEGILINE], which Hepatotoxicity [1] is on record?
Answer: no drug-induced liver injury reported

Question: What about the Hepatotoxicity [2] of the same compound?
Answer: drug-induced liver injury reported

Question: And the Hepatotoxicity [3]?
Answer: no drug-induced liver injury reported

Question: What does the source list for `C[Se]CC[C@H](N)C(=O)O` [SELENOMETHIONINE]?
Answer: Hepatotoxicity [1]: drug-induced liver injury reported; Hepatotoxicity [2]: no drug-induced liver injury reported; Hepatotoxicity [3]: drug-induced liver injury reported

Question: `Cn1cnc2c(F)c(Nc3ccc(Br)cc3Cl)c(C(=O)NOCCO)cc21` [SELUMETINIB] was tested. Which Hepatotoxicity [1] did it give?
Answer: no drug-induced liver injury reported

Question: What about the Hepatotoxicity [2] of the same compound?
Answer: no drug-induced liver injury reported

Question: And the Hepatotoxicity [3]?
Answer: drug-induced liver injury reported

Question: How did the Hepatotoxicity [1] turn out when `Cc1cc(C)c(/C=C2\C(=O)Nc3ccccc32)[nH]1` [SEMAXANIB] was run?
Answer: no drug-induced liver injury reported

Question: What about the Hepatotoxicity [2] of the same compound?
Answer: drug-induced liver injury reported

Question: And the Hepatotoxicity [3]?
Answer: drug-induced liver injury reported

Question: With `C=C1/C(=C\C=C2/CCC[C@]3(C)[C@@H]([C@H](C)/C=C/C=C/C(O)(CC)CC)CC[C@@H]23)C[C@@H](O)C[C@@H]1O` [SEOCALCITOL] as the compound, how does the Hepatotoxicity [1] read?
Answer: no drug-induced liver injury reported

Question: What about the Hepatotoxicity [2] of the same compound?
Answer: drug-induced liver injury reported

Question: And the Hepatotoxicity [3]?
Answer: no drug-induced liver injury reported

Question: Which results are given for `CN[C@H]1CC[C@@H](c2ccc(Cl)c(Cl)c2)c2ccccc21` [SERTRALINE]?
Answer: Hepatotoxicity ([1]; Liver): no drug-induced liver injury reported; Hepatotoxicity ([2]; Liver): drug-induced liver injury reported; Hepatotoxicity ([3]; Liver): drug-induced liver injury reported

Question: With `FCOC(C(F)(F)F)C(F)(F)F` [SEVOFLURANE] as the compound, how does the Hepatotoxicity [1] read?
Answer: no drug-induced liver injury reported

Question: And the Hepatotoxicity [2]?
Answer: drug-induced liver injury reported

Question: And the Hepatotoxicity [3]?
Answer: drug-induced liver injury reported

Question: With `CC(C)CC(N(C)C)C1(c2ccc(Cl)cc2)CCC1` (stereo not drawn) [SIBUTRAMINE] as the compound, how does the Hepatotoxicity [1] read?
Answer: no drug-induced liver injury reported

Question: What about the Hepatotoxicity [2] of the same compound?
Answer: drug-induced liver injury reported

Question: And the Hepatotoxicity [3]?
Answer: no drug-induced liver injury reported

Question: For `COc1cc(C2Oc3cc([C@H]4Oc5cc(O)cc(O)c5C(=O)[C@@H]4O)ccc3OC2CO)ccc1O` (stereo partly drawn) [SILIBININ], which Hepatotoxicity [1] is on record?
Answer: no drug-induced liver injury reported

Question: And the Hepatotoxicity [2]?
Answer: drug-induced liver injury reported

Question: And the Hepatotoxicity [3]?
Answer: drug-induced liver injury reported

Question: How did the Hepatotoxicity [1] turn out when `CO[C@H]1C[C@@H]2CC[C@@H](C)[C@@](O)(O2)C(=O)C(=O)N2CCCC[C@H]2C(=O)O[C@H]([C@H](C)C[C@@H]2CC[C@@H](O)[C@H](OC)C2)CC(=O)[C@H](C)/C=C(\C)[C@@H](O)[C@@H](OC)C(=O)[C@H](C)C[C@H](C)/C=C/C=C/C=C/1C` [SIROLIMUS] was run?
Answer: no drug-induced liver injury reported

Question: What about the Hepatotoxicity [2] of the same compound?
Answer: drug-induced liver injury reported

Question: What about the Hepatotoxicity [3] of the same compound?
Answer: drug-induced liver injury reported

Question: What does the source list for `Cc1cc2c(cc1CC(=O)c1sccc1S(=O)(=O)Nc1onc(C)c1Cl)OCO2` [SITAXENTAN]?
Answer: Hepatotoxicity [1]: no drug-induced liver injury reported; Hepatotoxicity [2]: drug-induced liver injury reported; Hepatotoxicity [3]: no drug-induced liver injury reported

Question: How did the Hepatotoxicity ([1]; Liver) turn out when `CC(=O)[O-].[Na+]` [SODIUM ACETATE] was run?
Answer: no drug-induced liver injury reported

Question: What about the Hepatotoxicity ([2]; Liver) of the same compound?
Answer: no drug-induced liver injury reported

Question: What about the Hepatotoxicity ([3]; Liver) of the same compound?
Answer: drug-induced liver injury reported

Question: How did the Hepatotoxicity [1] turn out when `O=C([O-])c1ccccc1.[Na+]` [SODIUM BENZOATE] was run?
Answer: no drug-induced liver injury reported

Question: And the Hepatotoxicity [2]?
Answer: no drug-induced liver injury reported

Question: And the Hepatotoxicity [3]?
Answer: drug-induced liver injury reported

Question: Which Hepatotoxicity ([1]; Liver) does the source give for `O=C([O-])O.[Na+]` [SODIUM BICARBONATE] here?
Answer: drug-induced liver injury reported

Question: And the Hepatotoxicity ([2]; Liver)?
Answer: no drug-induced liver injury reported

Question: And the Hepatotoxicity ([3]; Liver)?
Answer: drug-induced liver injury reported

Question: Which Hepatotoxicity [1] does the source give for `O=C([O-])CCCc1ccccc1.[Na+]` [SODIUM PHENYLBUTYRATE] here?
Answer: no drug-induced liver injury reported

Question: And the Hepatotoxicity [2]?
Answer: drug-induced liver injury reported

Question: What about the Hepatotoxicity [3] of the same compound?
Answer: no drug-induced liver injury reported

Question: For `O=S(=O)([O-])Oc1ccc(C(c2ccc(OS(=O)(=O)[O-])cc2)c2ccccn2)cc1.[Na+].[Na+]` [SODIUM PICOSULFATE], which Hepatotoxicity [1] is on record?
Answer: no drug-induced liver injury reported

Question: And the Hepatotoxicity [2]?
Answer: drug-induced liver injury reported

Question: And the Hepatotoxicity [3]?
Answer: no drug-induced liver injury reported
